We go through eight compounds from PubChem BioAssay (NCI).

Among the test systems are IGROV1 ovarian; SK-OV-3 ovarian; OVCAR-3 ovarian; RPMI-8226 leukemia; A549 NSCLC; NCI-H460 lung; NCI-H226 lung; OVCAR-8 ovarian; OVCAR-4 ovarian; NCI-H23 lung.
Common to all, as to assay: NCI anticancer screen, dose series, 48 h

Values joined by “and” are separate entries in the source; they are usually repeats but may differ in a detail not shown here. Equal values may be shown once.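 Tested at 5 concentrations; 48 h exposure; 96-well plates; endpoints linearly interpolated, else capped at highest concentration. Abbreviation: GI50, concentration required for 50% inhibition of growth. Definition used: TGI = concentration required for complete inhibition of growth.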

On to `Cc1ccc2c(-c3ccnc(Nc4cccc(C(F)(F)F)c4)n3)c(-c3ccccc3)nn2n1`, for which the GI50 is 2100 nM in the experiment on IGROV1 ovarian; 597 nM with SK-OV-3 ovarian; 5.73 µM with OVCAR-3 ovarian; over 14200 nM in the experiment on RPMI-8226 leukemia; 6.18 µM in the experiment with A549 NSCLC; 6.42 µM in the experiment on NCI-H460 lung. Further, the GI50 in the experiment on NCI-H226 lung was 6010 nM; in the experiment with OVCAR-8 ovarian, 9.27 µM; in the experiment on OVCAR-4 ovarian it was 12 µM; in the experiment on NCI-H23 lung, 11.8 µM. Further, the TGI is 24.4 µM with IGROV1 ovarian; over 15.8 µM in the experiment on SK-OV-3 ovarian; over 18.8 µM in the experiment with OVCAR-3 ovarian; over 25 µM in the experiment with RPMI-8226 leukemia; over 25 µM in the experiment on A549 NSCLC; over 16.4 µM with NCI-H460 lung. The TGI in the experiment on NCI-H226 lung was 17 µM; in the experiment with OVCAR-8 ovarian it was over 25 µM; in the experiment with OVCAR-4 ovarian, over 25 µM; with NCI-H23 lung it was over 25 µM.
Consider `CC[C@@]1(O)C(=O)OCc2c1cc1n(c2=O)Cc2cc3cc(O)ccc3nc2-1`, for which the GI50 with IGROV1 ovarian was 238 nM; with SK-OV-3 ovarian, under 12.4 nM; in the experiment on OVCAR-3 ovarian, 0.069 µM and 0.0368 µM; with RPMI-8226 leukemia, 139 nM and 277 nM; with A549 NSCLC, 0.0813 µM; with NCI-H460 lung it was 0.0172 µM and < 0.0104 µM. Also, the GI50 with NCI-H226 lung was 16.2 nM and 16.5 nM; in the experiment with OVCAR-4 ovarian, 0.224 µM. The TGI in the experiment on IGROV1 ovarian is 22.8 µM and 2.67 µM; with SK-OV-3 ovarian, 0.7 µM and 1.85 µM; in the experiment on OVCAR-3 ovarian, 0.301 µM and 0.228 µM; in the experiment with RPMI-8226 leukemia, 6.03 µM and 4.87 µM; with A549 NSCLC, 3.93 µM and 2.32 µM; in the experiment with NCI-H460 lung, 0.112 µM and 1.07 µM. For the same compound, the TGI in the experiment with NCI-H226 lung is 0.0907 µM and 0.113 µM; in the experiment on OVCAR-8 ovarian it was 2.47 µM and 0.477 µM; in the experiment on OVCAR-4 ovarian, 0.441 µM and 3.17 µM; in the experiment with NCI-H23 lung, 0.109 µM and 0.0424 µM.
On to `COc1ccc(-c2cc(-c3ccc(Cl)cc3)nc(SCCCC(=O)NO)n2)cc1OC`, for which the GI50 was 1040 nM with IGROV1 ovarian; 1540 nM with SK-OV-3 ovarian; 0.423 µM with OVCAR-3 ovarian; 946 nM with RPMI-8226 leukemia; 1.58 µM with A549 NSCLC; 0.466 µM in the experiment on NCI-H460 lung. Further, the GI50 in the experiment with NCI-H226 lung is 1200 nM; in the experiment on OVCAR-8 ovarian, 0.486 µM; with OVCAR-4 ovarian, 0.889 µM; with NCI-H23 lung, 1.29 µM. In addition, the TGI in the experiment with IGROV1 ovarian worked out at 2.69 µM; in the experiment with SK-OV-3 ovarian, 4.58 µM; in the experiment with OVCAR-3 ovarian it was 2.52 µM; in the experiment with RPMI-8226 leukemia it was 7.44 µM; with A549 NSCLC, 8.59 µM; with NCI-H460 lung, 3.4 µM. Also, the TGI in the experiment on NCI-H226 lung was 5.43 µM; in the experiment on OVCAR-8 ovarian it was over 21 µM; in the experiment with OVCAR-4 ovarian, 12.3 µM; in the experiment on NCI-H23 lung it was 5.53 µM.
Take `CCCCCCCCCCCCCCCC(=O)OCC1OC(OCCCC)[C@H](O[C@@H]2OC(C)C(OC(=O)CCC)C(O)C2O)C(O)C1O` (stereo partly specified): the GI50 in the experiment on IGROV1 ovarian was 23100 nM; in the experiment on SK-OV-3 ovarian, 5120 nM; in the experiment on OVCAR-3 ovarian it was 13.4 µM; with RPMI-8226 leukemia, 16800 nM; with A549 NSCLC, 17.4 µM; with NCI-H460 lung, 22.4 µM. The GI50 is 16800 nM in the experiment with NCI-H226 lung, 17 µM with OVCAR-8 ovarian, 18.1 µM in the experiment on OVCAR-4 ovarian and 16.2 µM in the experiment on NCI-H23 lung. For the same compound, the TGI with IGROV1 ovarian is over 100 µM; with SK-OV-3 ovarian, 16.1 µM; in the experiment on OVCAR-3 ovarian, 29.6 µM; in the experiment with RPMI-8226 leukemia, 33.4 µM; in the experiment on A549 NSCLC it was 34 µM; in the experiment on NCI-H460 lung, 57.8 µM. The TGI in the experiment on NCI-H226 lung is 36.2 µM; in the experiment with OVCAR-8 ovarian, 32.9 µM; in the experiment on OVCAR-4 ovarian, 34.2 µM; in the experiment with NCI-H23 lung, 30.2 µM.
On to `CC[C@]1(O)CC2CN(CCc3c([nH]c4ccccc34)C(C(=O)OC)(c3cc4c(cc3OC)N(C=O)[C@H]3[C@@](O)(C(=O)OC)[C@H](OC(C)=O)[C@]5(CC)[C@@H]6C[C@@H]6CN6CC[C@]43[C@@H]65)C2)C1` (stereo partly specified), for which the GI50 is under 3.25 nM with IGROV1 ovarian; under 3.25 nM in the experiment on SK-OV-3 ovarian; under 0.00325 µM in the experiment with OVCAR-3 ovarian; under 3.25 nM with RPMI-8226 leukemia; under 0.00325 µM in the experiment with A549 NSCLC; under 0.00325 µM in the experiment on NCI-H460 lung. Besides, the GI50 is 245 nM in the experiment with NCI-H226 lung, under 0.00325 µM in the experiment with OVCAR-8 ovarian, under 0.00325 µM in the experiment on OVCAR-4 ovarian and under 0.00325 µM in the experiment with NCI-H23 lung. Moreover, the TGI with IGROV1 ovarian was over 18 µM; in the experiment on SK-OV-3 ovarian it was under 0.00325 µM; with OVCAR-3 ovarian it was under 0.00325 µM; in the experiment with RPMI-8226 leukemia it was 0.0579 µM; in the experiment on A549 NSCLC it was over 30.7 µM; in the experiment on NCI-H460 lung, over 11.2 µM. The TGI in the experiment with NCI-H226 lung was over 16.3 µM; in the experiment with OVCAR-4 ovarian it was over 29.9 µM.
For `CCc1nc(N)nc(N)c1-c1ccc(N2CCNCC2)c([N+](=O)[O-])c1`, the TGI in the experiment on IGROV1 ovarian, in the experiment on SK-OV-3 ovarian, in the experiment with OVCAR-3 ovarian, in the experiment with RPMI-8226 leukemia, in the experiment on A549 NSCLC and in the experiment on NCI-H460 lung was over 100 µM throughout. The TGI in the experiment on NCI-H226 lung, in the experiment on OVCAR-8 ovarian, in the experiment with OVCAR-4 ovarian and with NCI-H23 lung was over 100 µM in each case.
For the compound `C=CCc1cc(O)ccc1O`, the GI50 is 43400 nM in the experiment with IGROV1 ovarian; 94800 nM with SK-OV-3 ovarian; 7.64 µM in the experiment on OVCAR-3 ovarian; 2600 nM in the experiment on RPMI-8226 leukemia; over 100 µM with A549 NSCLC; 46.8 µM with NCI-H460 lung. In addition, the GI50 was 44200 nM with NCI-H226 lung, 28.7 µM in the experiment with OVCAR-8 ovarian, 14 µM with OVCAR-4 ovarian and over 100 µM in the experiment with NCI-H23 lung. In addition, the TGI was over 100 µM in the experiment on IGROV1 ovarian; over 100 µM in the experiment with SK-OV-3 ovarian; 20.7 µM in the experiment with OVCAR-3 ovarian; 34.1 µM with RPMI-8226 leukemia; over 100 µM in the experiment on A549 NSCLC; over 100 µM with NCI-H460 lung. For the same compound, the TGI was over 100 µM in the experiment on NCI-H226 lung, over 100 µM with OVCAR-8 ovarian, 27 µM with OVCAR-4 ovarian and over 100 µM with NCI-H23 lung.
As for `O=C(NNC1=NS(=O)(=O)c2ccccc2N1c1ccccc1)c1cnccn1`, the GI50 was over 100000 nM in the experiment with IGROV1 ovarian; over 100000 nM with SK-OV-3 ovarian; over 100 µM in the experiment on OVCAR-3 ovarian; over 100000 nM in the experiment with RPMI-8226 leukemia; over 100 µM in the experiment on A549 NSCLC; over 100 µM in the experiment with NCI-H460 lung. Further, the GI50 is over 100000 nM with NCI-H226 lung, over 100 µM with OVCAR-8 ovarian, over 100 µM in the experiment on OVCAR-4 ovarian and over 100 µM with NCI-H23 lung. In addition, the TGI with IGROV1 ovarian, in the experiment on SK-OV-3 ovarian, with OVCAR-3 ovarian, with RPMI-8226 leukemia, in the experiment on A549 NSCLC and with NCI-H460 lung was over 100 µM in each case. In addition, the TGI with NCI-H226 lung, in the experiment with OVCAR-8 ovarian, in the experiment with OVCAR-4 ovarian and in the experiment on NCI-H23 lung was over 100 µM throughout.
